In patent publication US20180246105A1, “IMMUNOLOGICAL TEST KIT FOR […] EFFICACY AND STORAGE METHOD THEREOF” (priority 2015, published 2018):
Entries after “also recorded” stand apart in the source; their conditions may differ.

What was measured:
[1] = test system: T cell subsets (Th1, Th2, Th17, Treg, Tc1, Tc17); test: T-lymphocyte subset proportions and subset ratios during treatment; format: in vivo, human
Text: From the previous results, a T cell responds heterogeneously. In order to intuitively understand the dynamic changes of different T cell subsets, IFN-γ^+ CD4^+ T cells were assigned into the Th1, IL-4^+ CD4^+ T cells as TH2, IL-17a producing CD4^+ T cells as TH17, Foxp3^+CD4^+ T cells Treg, and the CD8^+ T cells secreting different cytokines were classified as TC1 and […] by the same method.
In order to further obtain the effect of different therapies on cellular immunity, the TH1/Treg, Th2/Treg, Th17/Treg, and Th1/th2 was analyzed and plotted.

[2] = Clinical trial ChiCTR-TRC-13003254: serum ALT kinetics; format: in vivo, human; conditions: 48-week treatment and 72-week follow-up
Experimental: HBV DNA was not detected or the level decreased at least 2 log 10 IU/mL compared with the basement on weeks 12, 24, 36, 48 and 72; The AST and ALT level on weeks 12, 24, 36, 48 and 72; The histological response, with the inflammation and fibrosis should rate under level 1 of the liver on week 48.
Routine biochemistry (liver function, renal function); Blood cell analysis; Serum HBV DNA detection; HBVM detection; All the detection were conducted in the central laboratory of Huashan Hospital.

[3] = test system: CD8+ T cells; test: Clinical cellular immune detection (10-day enrichment), CD8+ T cells re-stimulated with HBV-specific peptides; format: in vivo, human
Experimental: (§1) 7) Cell seeding and peptide stimulation. PBMC was re-suspended with 10% FBS-RPMI-1640 and seeded into 12-well plate with 1mL/well. Specific peptides were added at the same time with 1 μL per well. The plate was then incubated in 5% CO2, 37° C.
(§2) After five days incubation, 50 μL sample was taken from each well and stored at −80° C. Then added 500 ul 10% FBS-RPMI-1640 contained […], continued for another five days incubator.
(§3) 2) Stimulation. After 10 days enrichment, the cells in 12-well plate were transferred into a 1.5 mL EP tube. Centrifuge with 1500 rpm, 3 min. Discard supernatant and re-suspend with FBS-RPMI-1640 prepared in step 1. The suspended cells were then seeded into a 96-well plate, the plate was coated with PMA, N, CMV, S4, S8 and MIX, 90 uL/well with three repetitions. Then the plate was incubated in 5% CO2, 37° C. for 8 hours.
(§4) 3) Storage. After 8 hours incubation, the 96-well plate was set for centrifuge with 1500 rpm, 3 min. Discard supernatant and re-suspend with 200 μL cell freezing medium (10% DMSO with 90% FBS). Disassociation by pipetting 3 to 5 times and sealed with parafilm. And then set for gradient cryopreservation with 4° C. for 1 hour, at −20° C. for 40 min and at −80° C. thereafter.
(§5) 3) Cell surface marker staining Panel 1, CD4-APC; Panel 2, CD8-APC; Panel 3, CD4-FITC. The dose of antibody was as the recommended dose in the reagent manual. Plate was centrifuged with 1500 rpm, 3 min. Discard supernatant and re-suspend with staining buffer in 4° C. for 30 min.
6) Intracellular staining. […]
8) FACS detection. […] The result data was analyzed with FlowJo v7.6.3, and the results were shown as positive percentage.
Antigen specific cellular immunity may play an important role in chronic HBV treatment. […] After the cell was collected and re-stimulated by HBV-specific polypeptide for 8 hours, the levels of cytokines in CD4+ and CD8^+ T lymphocytes were detected by flow cytometry. IL-2, IL-4, IL-10, IL-17a, Foxp3, IFN-γ and TNF-α were analyzed in CD4^+ T cells, whereas IL-2, IL-17a, IFN-γ and TNF-α were analyzed in CD8^+ T lymphocyte.

[4] = test system: CD4+ T cells; test: Clinical cellular immune detection (10-day enrichment), CD4+ T cells re-stimulated with HBV-specific peptides; format: in vivo, human
Experimental: as §1, §2, §3, §4, §5
6) Intracellular staining. Panel 1/Panel 2, IFN-g-PE, TNF-α-BV421, IL-17-APC/cy7, IL-2-FITC; Panel 3, FOXP3-APC, IL-4-BV421, IL-10-PE. The dose of antibody was at the recommended dose in the reagent manual. Re-suspend the cells with staining buffer in room temperature for 1.5 hour with shake.
8) FACS detection. The detection was conducted with BD LSR Fortessa (BD Bioscience, USA). The voltage and compensation may be well adjusted. The result data was analyzed with FlowJo v7.6.3, and the results were shown as positive percentage.
Antigen specific cellular immunity may play an important role in chronic HBV treatment. […] Peripheral Blood mononuclear cells (PBMC) were isolated and re-stimulated with HBV-specific polypeptide for 10-day enrichment. After the cell was collected and re-stimulated by HBV-specific polypeptide for 8 hours, the levels of cytokines in CD4+ and CD8^+ T lymphocytes were detected by flow cytometry. IL-2, IL-4, IL-10, IL-17a, Foxp3, IFN-γ and TNF-α were analyzed in CD4^+ T cells, whereas IL-2, IL-17a, IFN-γ and TNF-α were analyzed in CD8^+ T lymphocyte.

[5] = test system: HBsAg; conditions: after five years of treatment; HBeAg positive CHB patients; cited from earlier work
[6] = 0 to 72 weeks, significant changes at 24th week

CC(C)(C)C(=O)OCOP(=O)(COCCn1cnc2c(N)ncnc21)OCOC(=O)C(C)(C)C [ADV, Adefovir Dipivoxil]
change of TH1, TH2, TH17, TC1 and Tc17 cell proportions ([1]; 0 weeks to 72 weeks): no significant changes | proportion of Treg cells in total T cell subsets ([1]; 48 weeks): 25.8% | proportion of Treg cells in total T cell subsets ([1]; 72 weeks, follow-up endpoint): 37.8% | proportion of Treg cells in total T cell subsets ([1]; baseline): 37.7% | ALT level, change [2]: did not change significantly | IFN-γ secreted by CD8+ T cells, dynamics ([3]; HLA-A2+ or HLA-A2− S polypeptide re-stimulation, 0 to 72 weeks): no difference | IL-17A of CD8+ T cells, dynamics ([3]; S polypeptide pool stimulation): no significance | IL-2 and TNF-α secreted by CD8+ T cells, dynamics ([3]; S polypeptide re-stimulation, course of treatment): No significant difference | Foxp3 expression in CD4+ T cells (Treg), dynamics [4, 6]: not significantly changed; also recorded: no significant fluctuation; also recorded: did not show significant fluctuation | IL-10 secretion in CD4+ T cells, dynamics [4, 6]: no significant change | Foxp3 expression in CD4+ T cells (Treg), dynamics ([4]; 0 to 72 weeks, significant changes at 24th week, listed as Adv): did not change significantly; also recorded: did not show significant fluctuation | IL-4 in CD4+ T cells, dynamics ([4]; S-polypeptide pool stimulation): no difference | IFN-γ expression in CD4+ T cells, dynamics ([4]; S-polypeptide pool stimulation, 0 to 72 weeks): no significant difference | IL-2 and TNF-α in CD4+ T cells, dynamics ([4]; S-polypeptide pool stimulation, course of treatment): no significant difference | IL-17A in CD4+ T cells, dynamics ([4]; peptide pool stimulation, course of treatment): no significant change

C[C@H](Cn1cnc2c(N)ncnc21)OCP(=O)(O)O [Tenofovir]
patients with HBsAg serotype transformed [5]: 23 of 266
